Results: patent publication EP0103830A2, “Phenylethylemine derivatires as growth stimulators” (priority 1982, dated 1984)
Structures can show the parent of a compound that is named as a salt.

Tests used:
Type in all cases: in vivo
[1] = Feeding trial in rats over 15 days (Beispiel 7), results relative to control; details: 25 ppm in feed, 15 Tage, Ratten weiblich SPF-Wistar; Kontrolle = 100 %
From the text: (§1) Vor Beginn des Fütterungsversuches wurden die Ratten zwei Tage lang an die neuen Haltungsbedingungen adaptiert, wobei generell das Versuchsfutter ohne Wirkstoffzusatz verabreicht wurde. Am dritten Versuchstag wurden die Tiere randomisiert und anschließend die Versuchsgruppen so gebildet, daß sowohl die Mittelwerte als auch die Streuungen in den Körpergewichten zwischen den Gruppen gleich waren.
Der Fütterungsversuch, in dem die Futteraufnahme, der Körpergewichtszuwachs und die Futterverwertung individuell bestimmt wurden, erstreckte sich über 15 Tage.
Als Wirkstoffe wurden dem Futter untergemischt: • 1-(3,4-Dihydroxyphenyl)-2-[1-methyl-2-(3,4-methylendioxyphenyl)ethylamino]ethanolhydrochlorid (= Verbindung I), • 2-Amino-1-(3-hydroxyphenyl)ethanolhydrochlorid (= Verbindung II), • 2-Amino-1-(3-hydroxyphenyl)propanolh^ydrogentartrat (= Verbindung III), • 1-(4-Hydroxyphenyl)-2-(1-methyl-3-phenylpropylamino)-propanolhydrochlorid (= Verbindung IV), • 2-Ethylamino-1-(3-hydroxyphenyl)ethanolhydrochlorid (= Verbindung V), • 1- (3,5-Dihydroxyphenyl) -2- (3-phenylpropylamino) propanol als Salz der 4-Aminobenzoesäure (= Verbindung VI), • 1-(3-Hydroxyphenyl)-2-(1,1-dimethyl-2-phenylethylamino)-ethanol als Salz der 4-Aminobenzoesäure (= Verbindung VII), • 5-[2-[1,1-Dimethylethyl)amino]-1-hydroxyethyl]-2-hydroxy- benzamid . HCl (= Verbindung VIII)
Ratten, weiblich, SPF-Wistar 36 Tiere/Versuch Gewicht: 90 bis 150 g Futter: Haltungsdiät für Ratten mit folgender Zusammensetzung: […]

[2] = Feeding trial (Beispiel 4): feed intake, weight gain, feed conversion; details: 25 ppm in feed, n = 6, whole trial period (13 Tage)
From the text: as §1, with “Die Tiere” for “Vor Beginn des Fütterungsversuches”, “2” for “die Ratten zwei”, “Tage” for “Tage lang”, “waren. Nach einer 5-tägigen Vorperiode wurde eine 8-tägige Hauptperiode durchgeführt, in denen Futteraufnahme, Zuwachs und Futterverwertung bestimmt wurden.” for “waren.”
(§2) Es wurden folgende Behandlungen geprüft: • b 1) Negativkontrolle (n = 12) • b 2) 25 ppm (Wirkstoff Herstellungsbeispiel 2) (n = 6)

[3] = Feeding trial (Beispiel 6): feed intake, weight gain, feed conversion; details: 25 ppm in feed, n = 6, whole trial period (13 Tage)
From the text: as §1, with “Die Tiere” for “Vor Beginn des Fütterungsversuches”, “2” for “die Ratten zwei”, “Tage” for “Tage lang”, “waren. Nach einer 5-tägigen Vorperiode wurde eine 8-tägige Hauptperiode durchgeführt, in denen Futteraufnahme, Zuwachs und Futterverwertung bestimmt wurden.” for “waren.”
as §2

[4] = Feeding trial (Beispiel 5): feed intake, weight gain, feed conversion; details: 25 ppm in feed, n = 6, whole trial period (13 Tage)
From the text: as §1, with “Die Tiere” for “Vor Beginn des Fütterungsversuches”, “2” for “die Ratten zwei”, “Tage” for “Tage lang”, “waren. Nach einer 5-tägigen Vorperiode wurde eine 8-tägige Hauptperiode durchgeführt, in denen Futteraufnahme, Zuwachs und Futterverwertung bestimmt wurden.” for “waren.”
as §2

[5] = Feeding trial (Beispiel 3): feed intake, weight gain, feed conversion; details: 25 ppm in feed, n = 6, whole trial period (13 Tage)
From the text: as §1, with “Die Tiere” for “Vor Beginn des Fütterungsversuches”, “2” for “die Ratten zwei”, “Tage” for “Tage lang”, “waren. Nach einer 5-tägigen Vorperiode wurde eine 8-tägige Hauptperiode durchgeführt, in denen Futteraufnahme, Zuwachs und Futterverwertung bestimmt wurden.” for “waren.”
(§3) Es wurden folgende Behandlungen geprüft: • b 1) Negativkontrolle (n = 12) • b 2) 25 ppm (Wirkstoff Herstellungsbeispiel 1) (n = 6)

[6] = Feeding trial (Beispiel 1): feed intake, weight gain, feed conversion; details: 25 ppm in feed, n = 6, whole trial period (13 Tage), Ratten weiblich SPF Wistar
From the text: as §1, with “Die Tiere” for “Vor Beginn des Fütterungsversuches”, “2” for “die Ratten zwei”, “Tage” for “Tage lang”, “waren. Nach einer 5-tägigen Vorperiode wurde eine 8-tägige Hauptperiode durchgeführt, in denen Futteraufnahme, Zuwachs und Futterverwertung bestimmt wurden.” for “waren.”
as §3

[7] = Feeding trial (Beispiel 2): feed intake, weight gain, feed conversion; details: 0,2 ppm in feed, whole trial period (12 Tage)
From the text: as §1, with “Die Tiere” for “Vor Beginn des Fütterungsversuches”, “2” for “die Ratten zwei”, “Tage” for “Tage lang”, “waren. Nach einer 5-tägigen Vorperiode wurde eine 7-tägige Hauptperiode durchgeführt, in denen Futteraufnahme, Zuwachs und Futterverwertung bestimmt wurden.” for “waren.”
Es wurden folgende Behandlungen geprüft: • b 1) Negativkontrolle (n = 24) • b 2) 0,2 ppm (Wirkstoff Herstellungsbeispiel 1)

SMILES | Futteraufnahme [1] | Futterverwertung [1] | Zuwachs [1] | also measured
CC(CCc1ccccc1)NC(C)C(O)c1ccc(O)cc1 (stereo not drawn) [Verbindung IV, 1-(4-Hydroxyphenyl)-2-(1-methyl-3-phenylpropylamino)-propanolhydrochlorid] | 101,7% | 96,9% | 105% | 
NCC(O)c1cccc(O)c1 (stereo not drawn) [Verbindung II, 2-Amino-1-(3-hydroxyphenyl)ethanolhydrochlorid] | 98% | 91,6% | 107% | 
CC(C)(C)NCC(O)c1cc(Br)c(O)c(Br)c1 (stereo not drawn) [Herstellungsbeispiel 2] |  |  |  | Futterverwertung ([2]; Negativkontrolle 4,75): 4,41 g/g; Zuwachs ([2]; Negativkontrolle 41,3): 45,1 g; Futteraufnahme ([2]; Negativkontrolle 196): 199 g; Futterverwertung ([3]; Negativkontrolle 5,04): 4,36 g/g; Zuwachs ([3]; Negativkontrolle 37,0): 43,2 g; Futteraufnahme ([3]; Negativkontrolle 182): 183 g; Futterverwertung ([4]; Negativkontrolle 5,62): 3,96 g/g; Zuwachs ([4]; Negativkontrolle 27,9): 43,4 g; Futteraufnahme ([4]; Negativkontrolle 152): 171 g
CCNCC(O)c1cccc(O)c1 (stereo not drawn) [Verbindung V, 2-Ethylamino-1-(3-hydroxyphenyl)ethanolhydrochlorid] | 104% | 90,4% | 115% | 
COc1ccc(C(O)CNC(C)(C)C)cc1 (stereo not drawn) [Herstellungsbeispiel 1, 2-t-Butylamino-1-(4-methoxyphenyl)-ethanol] |  |  |  | Futterverwertung ([5]; Negativkontrolle 5,04): 4,41 g/g; Zuwachs ([5]; Negativkontrolle 37,0): 42,4 g; Futteraufnahme ([5]; Negativkontrolle 182): 187 g; Futterverwertung ([6]; Negativkontrolle 5,62): 4,03 g/g; Zuwachs ([6]; Negativkontrolle 27,9): 43,7 g; Futteraufnahme ([6]; Negativkontrolle 153): 175 g; Futterverwertung ([7]; Negativkontrolle 4,88): 4,21 g/g; Zuwachs ([7]; Negativkontrolle 41,0): 50,5 g; Futteraufnahme ([7]; Negativkontrolle 200): 213 g
CC(Cc1ccc2c(c1)OCO2)NCC(O)c1ccc(O)c(O)c1 (stereo not drawn) [Verbindung I, 1-(3,4-Dihydroxyphenyl)-2-[1-methyl-2-(3,4-methylendioxyphenyl)ethylamino]ethanolhydrochlorid] | 104% | 92,9% | 112% | 
CC(C)(C)NCC(O)c1ccc(O)c(C(N)=O)c1 (stereo not drawn) [Verbindung VIII, 5-[2-[(1,1-Dimethylethyl)amino]-1-hydroxyethyl]-2-hydroxy-benzamid . HC1] | 106% | 84,8% | 125,0% | 
CC(N)C(O)c1cccc(O)c1 (stereo not drawn) [Verbindung III, 2-Amino-1-(3-hydroxyphenyl)propanolhydrogentartrat] | 99% | 96,1% | 103% | 
